Laboratory results reported in patent US10369138B2, “Monobactam organic compounds for the treatment of bacterial infections” (Novartis AG, priority 2014, dated 2019).
≈ marks a conversion by molar mass, not a printed value. Where two headings read alike, the source gives them in different places.

Columns and labels:
E. coli containing KPC-2 = test: MIC by broth microdilution, E. coli containing KPC-2 (Ec KPC2 Iso); assay type: cell-based; conditions: Escherichia coli, read-out: Ec KPC2 Iso (MIC), E. coli containing KPC-2 (carbapenemase from Klebsiella pneumoniae)
Summary of the method: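 Host E. coli BW25113 pspB carrying multicopy pBAD18-kan plasmid with constitutive TEM-promoter KPC-2 expression (periplasmic signal sequence); broth microdilution per CLSI in cation-adjusted Mueller-Hinton broth, inoculum ~5×10^5 CFU/mL, compounds twofold serially diluted from DMSO masters (10% DMSO in dilution series added).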

E. coli strain 25922 = test: MIC by broth microdilution, E. coli strain 25922; assay type: cell-based
Summary of the method: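 CLSI broth microdilution in cation-adjusted Mueller-Hinton broth, inoculum about 5×10^5 CFU/mL, 10% DMSO from the diluted series, 20 h at 35-37° C. MIC is the lowest concentration preventing visible growth, read by eye and at 600 nm.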

[1] = Escherichia coli, 25922, E. coli strain 25922, read-out: Ec 25922 (MIC)

Row | Structure (SMILES) | MIC (E. coli containing KPC-2) [µg/mL] | MIC (E. coli strain 25922; [1]) [µg/mL] | MIC (E. coli strain 25922; Escherichia coli, 25922, read-out: Ec 25922 (MIC)) [µg/mL]
1 | Nc1nc(/C(=N/OC2(C(=O)O)CC2)C(=O)N[C@@H]2C(=O)N(S(=O)(=O)O)[C@@H]2Cn2ncc(CN3CCC(N)CC3)n2)cs1 [Example 138, 1-(((Z)-(2-(((2R,3S)-2-((4-((4-aminopiperidin-1-yl)methyl)-2H-1,2,3-triazol-2-yl)methyl)-4-oxo-1-sulfoazetidin-3-yl)amino)-1-(2-aminothiazol-4-yl)-2-oxoethylidene)amino)oxy)cyclopropanecarboxylic acid] | 1 (≈ 1.63 µM) | 0.5 (≈ 0.816 µM) | –
2 | N=C(NC1CCNCC1)c1ccc(OC[C@H](O/N=C(\C(=O)N[C@@H]2C(=O)N(S(=O)(=O)O)[C@@H]2Cn2ncc(CN)n2)c2csc(N)n2)C(=O)O)cc1 [Example 84, (S)-2-(((Z)-(2-(((2R,3S)-2-((4-(aminomethyl)-2H-1,2,3-triazol-2-yl)methyl)-4-oxo-1-sulfoazetidin-3-yl)amino)-1-(2-aminothiazol-4-yl)-2-oxoethylidene)amino)oxy)-3-(4-(N-(piperidin-4-yl)carbamimidoyl)phenoxy)propanoic acid] | 0.5 (≈ 0.68 µM) | 0.5 (≈ 0.68 µM) | –
3 | CC(C)(O/N=C(\C(=O)N[C@@H]1C(=O)N(S(=O)(=O)O)[C@@H]1Cn1nnnc1CN)c1csc(N)n1)C(=O)O [Example 6, 2-(((Z)-(2-(((2R,3S)-2-((5-(aminomethyl)-1H-tetrazol-1-yl)methyl)-4-oxo-1-sulfoazetidin-3-yl)amino)-1-(2-aminothiazol-4-yl)-2-oxoethylidene)amino)oxy)-2-methylpropanoic acid] | 1 (≈ 1.88 µM) | 4 (≈ 7.51 µM) | –
4 | Nc1nc(/C(=N/OC2(C(=O)O)CC2)C(=O)N[C@@H]2C(=O)N(S(=O)(=O)O)[C@@H]2Cn2ncc(CN[C@H]3CCNC3)n2)cs1 [Example 91, 1-(((Z)-(1-(2-aminothiazol-4-yl)-2-oxo-2-(((3S,4R)-2-oxo-4-((4-(((S)-pyrrolidin-3-ylamino)methyl)-2H-1,2,3-triazol-2-yl)methyl)-1-sulfoazetidin-3-yl)amino)ethylidene)amino)oxy)cyclopropanecarboxylic acid] | 0.25 (≈ 0.418 µM) | 0.125 (≈ 0.209 µM) | –
5 | CC(C)(O/N=C(\C(=O)N[C@@H]1C(=O)N(S(=O)(=O)O)[C@@H]1Cn1cc(CNC(=N)N)nn1)c1csc(N)n1)C(=O)O [Example 45, 2-(((Z)-(1-(2-aminothiazol-4-yl)-2-(((2R,3S)-2-((4-(guanidinomethyl)-1H-1,2,3-triazol-1-yl)methyl)-4-oxo-1-sulfoazetidin-3-yl)amino)-2-oxoethylidene)amino)oxy)-2-methylpropanoic acid] | 0.5 (≈ 0.872 µM) | – | 0.5 (≈ 0.872 µM)
6 | CC(C)(O/N=C(\C(=O)N[C@@H]1C(=O)N(S(=O)(=O)O)[C@@H]1CN1C[C@H](CO)OC1=O)c1csc(N)n1)C(=O)O [Example 72, 2-(((Z)-(1-(2-aminothiazol-4-yl)-2-(((2R,3S)-2-(((R)-5-(hydroxymethyl)-2-oxooxazolidin-3-yl)methyl)-4-oxo-1-sulfoazetidin-3-yl)amino)-2-oxoethylidene)amino)oxy)-2-methylpropanoic acid] | 4 (≈ 7.27 µM) | 4 (≈ 7.27 µM) | –
7 | N=C(NCCN)c1ccc(OC[C@H](O/N=C(\C(=O)N[C@@H]2C(=O)N(S(=O)(=O)O)[C@@H]2Cn2cncn2)c2csc(N)n2)C(=O)O)cc1 [Example 67, (S)-2-(((Z)-(2-(((2R,3S)-2-((1H-1,2,4-triazol-1-yl)methyl)-4-oxo-1-sulfoazetidin-3-yl)amino)-1-(2-aminothiazol-4-yl)-2-oxoethylidene)amino)oxy)-3-(4-(N-(2-aminoethyl)carbamimidoyl)phenoxy)propanoic acid] | 0.125 (≈ 0.188 µM) | 0.25 (≈ 0.376 µM) | –
8 | Cc1c[n+](C)ccc1-c1cn(C[C@@H]2[C@H](NC(=O)/C(=N\OC(C)(C)C(=O)O)c3csc(N)n3)C(=O)N2S(=O)(=O)O)nn1 [Example 49, (2R,3S)-3-((Z)-2-(2-aminothiazol-4-yl)-2-(((2-carboxypropan-2-yl)oxy)imino)acetamido)-2-((4-(1,3-dimethylpyridin-1-ium-4-yl)-1H-1,2,3-triazol-1-yl)methyl)-4-oxoazetidine-1-sulfonate] | 16 | 2 | –
9 | Nc1nc(/C(=N/OC2(C(=O)O)CC2)C(=O)N[C@@H]2C(=O)N(S(=O)(=O)O)[C@@H]2Cn2ncc(CN[C@H]3C[C@H](N)C3)n2)cs1 [Example 93, 1-(((Z)-(2-(((2R,3S)-2-((4-((((1 r,3R)-3-aminocyclobutyl)amino)methyl)-2H-1,2,3-triazol-2-yl)methyl)-4-oxo-1-sulfoazetidin-3-yl)amino)-1-(2-aminothiazol-4-yl)-2-oxoethylidene)amino)oxy)cyclopropanecarboxylic acid] | 0.5 (≈ 0.835 µM) | 0.25 (≈ 0.418 µM) | –
10 | Nc1nc(/C(=N/OC2(C(=O)O)CCC2)C(=O)N[C@@H]2C(=O)N(S(=O)(=O)O)[C@@H]2Cn2cncn2)cs1 [Example 32, 1-(((Z)-(2-(((2R,3S)-2-((1H-1,2,4-triazol-1-yl)methyl)-4-oxo-1-sulfoazetidin-3-yl)amino)-1-(2-aminothiazol-4-yl)-2-oxoethylidene)amino)oxy)cyclobutanecarboxylic acid] | 1 (≈ 1.94 µM) | 2 (≈ 3.89 µM) | –
11 | N=C(NC1CCNCC1)c1ccc(OC[C@H](O/N=C(\C(=O)N[C@@H]2C(=O)N(S(=O)(=O)O)[C@@H]2Cn2cncn2)c2csc(N)n2)C(=O)O)cn1 [Example 79, (S)-2-(((Z)-(2-(((2R,3S)-2-((1H-1,2,4-triazol-1-yl)methyl)-4-oxo-1-sulfoazetidin-3-yl)amino)-1-(2-aminothiazol-4-yl)-2-oxoethylidene)amino)oxy)-3-((6-(N-(piperidin-4-yl)carbamimidoyl)pyridin-3-yl)oxy)propanoic acid] | 0.25 (≈ 0.354 µM) | 0.25 (≈ 0.354 µM) | –
12 | CC(C)(O/N=C(\C(=O)N[C@@H]1C(=O)N(S(=O)(=O)O)[C@@H]1CN1CCN/C1=N\C#N)c1csc(N)n1)C(=O)O [Example 40, 2-(((Z)-(1-(2-aminothiazol-4-yl)-2-(((2R,3S)-2-(((E)-2-(cyanoimino)imidazolidin-1-yl)methyl)-4-oxo-1-sulfoazetidin-3-yl)amino)-2-oxoethylidene)amino)oxy)-2-methylpropanoic acid] | 2 (≈ 3.68 µM) | 2 (≈ 3.68 µM) | –
13 | CC(C)(O/N=C(\C(=O)N[C@@H]1C(=O)N(S(=O)(=O)O)[C@@H]1CN1C[C@@H](CO)OC1=O)c1csc(N)n1)C(=O)O [Example 63, 2-(((Z)-(1-(2-aminothiazol-4-yl)-2-(((2R,3S)-2-(((S)-5-(hydroxymethyl)-2-oxooxazolidin-3-yl)methyl)-4-oxo-1-sulfoazetidin-3-yl)amino)-2-oxoethylidene)amino)oxy)-2-methylpropanoic acid] | 32 (≈ 58.1 µM) | 32 (≈ 58.1 µM) | –
14 | N=C(N[C@H]1C[C@H](N)C1)c1ccc(OC[C@H](O/N=C(\C(=O)N[C@@H]2C(=O)N(S(=O)(=O)O)[C@@H]2Cn2cncn2)c2csc(N)n2)C(=O)O)cc1 [Example 77, (S)-2-(((Z)-(2-(((2R,3S)-2-((1H-1,2,4-triazol-1-yl)methyl)-4-oxo-1-sulfoazetidin-3-yl)amino)-1-(2-aminothiazol-4-yl)-2-oxoethylidene)amino)oxy)-3-(4-(N-((1r,3S)-3-aminocyclobutyl)carbamimidoyl)phenoxy)propanoic acid] | 0.125 (≈ 0.181 µM) | 0.25 (≈ 0.361 µM) | –
15 | NCCNC(=O)NC[C@@H]1CN(C[C@@H]2[C@H](NC(=O)/C(=N\OC3(C(=O)O)CC3)c3csc(N)n3)C(=O)N2S(=O)(=O)O)C(=O)O1 [Example 111, 1-(((Z)-(2-(((2R,3S)-2-(((R)-5-((3-(2-aminoethyl)ureido)methyl)-2-oxooxazolidin-3-yl)methyl)-4-oxo-1-sulfoazetidin-3-yl)amino)-1-(2-aminothiazol-4-yl)-2-oxoethylidene)amino)oxy)cyclopropanecarboxylic acid] | ≤ 0.06 | ≤ 0.06 | –
16 | CC(C)(O/N=C(\C(=O)N[C@@H]1C(=O)N(S(=O)(=O)O)[C@@H]1Cn1cc(CN)nn1)c1csc(N)n1)C(=O)O [Example 44, 2-(((Z)-(2-(((2R,3S)-2-((4-(aminomethyl)-1H-1,2,3-triazol-1-yl)methyl)-4-oxo-1-sulfoazetidin-3-yl)amino)-1-(2-aminothiazol-4-yl)-2-oxoethylidene)amino)oxy)-2-methylpropanoic acid] | 1.5 (≈ 2.82 µM) | 0.67 (≈ 1.26 µM) | –
17 | NCCCNCc1nnn(C[C@@H]2[C@H](NC(=O)/C(=N\OC3(C(=O)O)CC3)c3csc(N)n3)C(=O)N2S(=O)(=O)O)n1 [Example 96, 1-(((Z)-(2-(((2R,3S)-2-((5-(((3-aminopropyl)amino)methyl)-2H-tetrazol-2-yl)methyl)-4-oxo-1-sulfoazetidin-3-yl)amino)-1-(2-aminothiazol-4-yl)-2-oxoethylidene)amino)oxy)cyclopropanecarboxylic acid] | 1 (≈ 1.7 µM) | 0.25 (≈ 0.425 µM) | –
18 | Nc1nc(/C(=N/OCC(=O)O)C(=O)N[C@@H]2C(=O)N(S(=O)(=O)O)[C@@H]2Cn2cncn2)cs1 [Example 17, 2-(((Z)-(2-(((2R,3S)-2-((1H-1,2,4-triazol-1-yl)methyl)-4-oxo-1-sulfoazetidin-3-yl)amino)-1-(2-aminothiazol-4-yl)-2-oxoethylidene)amino)oxy)acetic acid] | 0.25 (≈ 0.527 µM) | 0.5 (≈ 1.05 µM) | –
19 | Nc1nc(/C(=N/OC2(C(=O)O)CC2)C(=O)N[C@@H]2C(=O)N(S(=O)(=O)O)[C@@H]2Cn2ncc(CSC3Cn4cnc[n+]4C3)n2)cs1 (stereo partly drawn) [Example 139, (2R,3S)-3-((Z)-2-(2-aminothiazol-4-yl)-2-((1-carboxycyclopropoxy)imino)acetamido)-2-((4-(((6,7-dihydro-5H-pyrazolo[1,2-a][1,2,4]triazol-4-ium-6-yl)thio)methyl)-2H-1,2,3-triazol-2-yl)methyl)-4-oxoazetidine-1-sulfonate] | 4 | 1 | –
